Columns and labels:
Format in all cases: cell-based
human skin fibroblast [1] = experiment: Gene transfer efficiency with two retrovirus vectors, AcGFP1/mStrawberry double positive cells by flow cytometer (Example 8); conditions: 3 days after gene transfer
Protocol: According to the same manner as that of Example 1-(1), immobilization of Retronectin on a culture plate was carried out, provided that a non-treatment 24-well culture plate (manufactured by Becton, Dickinson and Company) was used, and a Retronectin solution was added to each well by each 500 μL.
Gene transfer with Retronectin was carried out according to the same manner as that of Example 3-(2), provided that a retrovirus vector was a combination of DON-am-AcGFP1 and DONAI2-am-mStrawberry, and gene transfer was carried out by mixing each 250 μL of virus solutions. Further, a group of mixing 250 μL of a virus solution diluted 50-fold with 10F-DMEM was also set. In addition, a cell was suspended in a medium to 4×10^4 cells/mL, and each 500 μL was added to each well.
Gene transfer with polybrene was carried out in the same combination as that of retrovirus vectors according to the same manner as that of gene transfer with polybrene of Example 7-(2), provided that the cell was suspended in a medium to 4×10^4 cells/mL, and each 500 μL was added to each well of a 24-well culture plate (manufactured by Corning). […]
After 3 days from gene transfer operation, the cells were recovered, and AcGFP1 positive and mStrawberry positive cells were measured with a flow cytometer (CytomicsFC500, manufactured by Beckmann Coulter Inc.).

human skin fibroblast [2] = experiment: iPS cell colony number, Retronectin method versus polybrene method (Example 19); conditions: for iPS cell colony number: 28th day of culture
Protocol: (§1) As an index showing an existence rate of a cell in which each retrovirus vector together with a gene encoding a nuclear reprogramming factor (iPS cell inducing factor) was inserted, gene transfer of an AcGFP1 gene was carried out, and a pluripotent stem cell (iPS cell) induction efficiency and an AcGFP1 positive cell rate, in a gene transfer method with Retronectin (Retronectin method) and a gene transfer method with polybrene (polybrene method) were compared. In addition, regarding partial condition, quantitation of a copy number of a retrovirus vector inserted into a genome was carried out, and comparison of a copy number and a pluripotent stem cell (iPS cell) induction efficiency was carried out.
(§2) The virus solutions prepared in Preparation Example 2 and Preparation Example 3 were mixed at an equal amount in a combination of Table 24, the solution in which the virus solution was diluted 10-fold and 100-fold with 10F-DMEM was prepared regarding the condition A, and the solution in which the virus solution was diluted 10-fold was prepared regarding the condition B, and these were used in gene transfer. Gene transfer was carried out according to the same manner as that of Example 7-(2), provided that 1 mL of PSB was used for washing a plate with PBS in the Retronectin method, the cell number used in infection by the Retronectin method and the polybrene method was 4×10^4 cells/well, and a retrovirus vector solution was 1 mL/well.
(§3) According to the same manner as that of Example 10-(4), seeding of the gene-introduced cell on a feeder cell was carried out, provided that an AcGFP1 positive cell rate was measured with a flow cytometer using remaining cells which were not used in seeding on the feeder cell.
According to the same manner as that of Example 10-(5), culturing on the feeder cell was carried out, provided that cells were recovered from a part of wells under the condition A on the 11th day of culture, genome extraction was carried out, and the inserted number of the retrovirus vector was quantitated.

human skin fibroblast [3] = experiment: AcGFP1 positive cell rate by flow cytometer (Example 19)
Protocol: as §1
According to the same manner as that of Example 1-(1), immobilization of Retronectin on a culture plate was carried out, provided that, for a plate coated with Retronectin, a non-treatment 12-well plate was used, and each 1 mL of a Retronectin solution (25 μg/mL) was added to each well.
as §2, §3

[4] = test system: human adult skin fibroblasts; experiment: iPS cell colony induction, differences between donors, Retronectin or polybrene (Example 13); conditions: virus 10-fold dilution, 25th day of culture, N=2
Protocol: Regarding gene transfer with a retrovirus vector, a pluripotent stem cell was induced using Retronectin or polybrene, targeting four kinds of human adult skin fibroblasts as in Example 12, followed by comparison.
According to the same manner as that of Example 1-(1), immobilization of Retronectin on a culture plate was carried out, provided that a non-treatment 12-well culture plate (manufactured by Becton, Dickinson and Company) was used, and each 1 mL of a Retronectin solution was added to each well.
According to the same manner as that of Example 7-(2), gene transfer was carried out (day 0 of culturing), provided that a 12-well plate for culturing a cell (manufactured by Corning) was used in gene transfer with polybrene. A virus solution was added to each well by each 1 mL by diluting 10-fold a solution obtained by mixing equal amounts of three kinds of vectors, with 10F-DMEM.
On the sixth day of culture, according to the same manner as that of Example 5-(4), the gene-introduced cell was seeded on a feeder cell, and culturing was continued.
According to the same manner as that of Example 10-(5), culturing on the feeder cell was carried out until the 25th day of culture.
In addition, the number in the Table indicates an average value of N=2.

[5] = test system: human adult skin fibroblast; experiment: iPS cell colony induction, standing infecting method, Retronectin versus Native fibronectin (Example 21); conditions: virus 10-fold dilution, standing infection, 27th day of culture, N=3
Protocol: Using a plate coated with Retronectin and a plate coated with Native fibronectin, gene transfer was carried out, and pluripotent stem cell induction was carried out. In addition, as the plate, a plate made in the following Example 21-(1), and a marketed product of a 35 mm petri dish coated with Retronectin in advance (T110A manufactured by TAKARA BIO INC.), and a marketed product of a 35 mm petri dish coated with Native fibronectin in advance (354457 manufactured by FALCON) were used.
According to the same manner as that of Example 1-(1), immobilization of Retronectin on a culture plate was carried out, provided that, as a culturing container, a non-treatment 35 mm petri dish (manufactured by IWAKI CO., LTD.) was used. In addition, petri dishes coated with Retronectin and Native fibronectin in advance which are marketed products (hereinafter, also described as Retronectin dish and fibronectin dish) were not subjected to these immobilization operations.
The virus solutions prepared in Preparation Example 2 were mixed at an equal amount in a combination of Table 27, and diluted 10-fold with 10F-DMEM, each 2 mL was added to the Retronectin-immobilized culturing petri dish prepared in Example 21-(1), or the petri dish coated with Retronectin or Native fibronectin in advance, and this was allowed to stand in a CO2 incubator at 32° C. for 4 to 6 hours. […]

[6] = vector combination Condition A, virus 10-fold dilution
[7] = vector combination Condition A, virus 100-fold dilution
[8] = vector combination Condition B, virus 10-fold dilution

Substance: Retronectin: fragment of fibronectin having a heparin-II binding region (registered trademark, CH-296, TAKARA BIO INC.)
- Ratio of double positive cells (human skin fibroblast [1]; virus 50-fold dilution): 66.5%
- Ratio of double positive cells (human skin fibroblast [1]; virus solution undiluted): 40.7%
- iPS cell colony number higher in the Retronectin method (human skin fibroblast [2]; Condition A, Retronectin method 100-fold dilution versus polybrene method 10-fold dilution): 9 fold
- difference in the iPS cell colony number, Retronectin method versus polybrene method (human skin fibroblast [2]; Condition A, retrovirus 10-fold dilution): ≥ 3 fold
- iPS cell colony number higher in the Retronectin method (human skin fibroblast [2]; Condition B, versus polybrene method): 2 fold
- iPS cell colony number (human skin fibroblast [2]; [6]): 10.0
- iPS cell colony number (human skin fibroblast [2]; [7]): 27.0
- iPS cell colony number (human skin fibroblast [2]; [8]): 11.5
- AcGFP1 positive rate (human skin fibroblast [3]; [6]): 82.8%
- AcGFP1 positive rate (human skin fibroblast [3]; [7]): 94.1%
- AcGFP1 positive rate (human skin fibroblast [3]; [8]): 88%
- Number of iPS cell colonies ([4]; Cell A): 81.0
- Number of iPS cell colonies ([4]; Cell B): 6.5
- Number of iPS cell colonies ([4]; Cell C): 114.0
- Number of iPS cell colonies ([4]; Cell D): 44.5
- Number of iPS cell colonies ([5]; Condition A: DON5-am-OCT4-IR-SOX2, DON5-am-KLF4): 52.0
- Number of iPS cell colonies ([5]; Condition B: DON5-am-OCT4-IR-SOX2, DON5-am-LIN28-IR-NANOG, DON5-am-KLF4): 97.3
